In BindingDB's records for PubMed 32883635 (National Institute of Pharmaceutical Education and Research …, 2020):

Target: T1, Enoyl-[acyl-carrier-protein] reductase [NADPH] FabI (Staphylococcus aureus (strain MRSA252), UniProt Q6GI75)
T1 sequence (Q6GI75 whole entry): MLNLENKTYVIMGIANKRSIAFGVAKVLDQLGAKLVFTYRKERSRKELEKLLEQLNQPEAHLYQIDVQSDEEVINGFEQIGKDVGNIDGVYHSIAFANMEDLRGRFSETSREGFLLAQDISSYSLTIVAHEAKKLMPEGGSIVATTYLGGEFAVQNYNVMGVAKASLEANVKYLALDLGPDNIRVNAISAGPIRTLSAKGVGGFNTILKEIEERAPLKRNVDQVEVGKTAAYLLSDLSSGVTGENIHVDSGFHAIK
Assay: Inhibition of Staphylococcus aureus FabI assessed as inhibition of bacterial growth by measuring the NADH consumption rate at 20 mins

SMILES | IC50 [nM]
COc1cc(/C=N/c2ccc(S(N)(=O)=O)cc2)ccc1C(C)=O | 0.33
NS(=O)(=O)c1ccc(/N=C/C2=C(Cl)CCC=C2)cc1 | 0.35
NS(=O)(=O)C1C=CC(NC(=O)CCCN2CCOCC2)C=C1 (stereo unspecified) | 0.31

Target: not listed separately
Assay: Inhibition of wild type Escherichia coli FabI assessed as inhibition of bacterial growth

SMILES | Ki [nM]
Oc1cc(F)ccc1Oc1ccccc1 [PT55] | 0.7
Cc1ccc(Oc2ccccc2)c(O)c1 [PT53] | 7
Oc1ccccc1Oc1ccccc1 [2-phenoxylphenol] | 0.5
